According to patent US5268308A, “Immunoassay for pyridostigmine” (priority 1989, dated 1993):
Values joined by “and” are separate entries in the source; they are usually repeats but may differ in a detail not shown here. Identical values can stand only once. Like-named read-outs stand apart in the source and are kept apart here.

Key:
[1] = tested on: acetylcholinesterase; details: cited from earlier work
[2] = molecular target: Pyridostigmine Antibody; test: Cross-reactivity with pyridostigmine antibody in RIA (competition with labeled pyridostigmine); assay type: binding, rabbit (male New Zealand white); details: labeled pyridostigmine 5000 DPM; maximum tested 500 ng
Procedure: Antibodies to the pyridostigmine-BSA immunogen were produced by injecting male New Zealand white rabbits. Prior to injection, the immunogen was emulsified with an equal volume of complete Freund's adjuvant, purchased from Difco Laboratories. The initial immunization consisted of 0.8 mg of protein injected intracutaneously into the back of the rabbits. Booster injections containing 0.8 mg of immunogen and incomplete Freund's adjuvant were administered every one or two months for the next seven months. Blood was collected one week after each booster injection from the central ear vein. The blood was allowed to clot at room temperature and then centrifuged at 1500×g for 15 minutes. The separated serum was stored frozen at -20° C. until assayed for the presence of pyridostigmine antibody. […] FIG. 1 is the antibody dilution curve for pyridostigmine.
In the assay procedure tritiated pyridostigmine having specificity of […] was used as tracer. The dilution of tracer, antisera and pyridostigmine standards were made using 0.01 M phosphate buffer containing 150 mM sodium chloride with a pH of 7.4.. […] Both standard and sample tubes were always analyzed in duplicate. The assay was carried out according to the protocol shown in. Table 1 with the reagents were added to the assay tubes in the order shown in.
According to the protocol for the RIA of the present invention, after the addition of antisera, the contents of the tubes were mixed and incubated for 3 hours at 4° C. The antigen which bound to the antibody was separated by adding 100% saturated ammonium sulfate and centrifuging at 2500×g for 15 minutes. After aspiration of the supernatant, the precipitate was washed one time with 50% saturated ammonium sulfate; then the mixture was centrifuged and the supernatent removed. The precipitate was dissolved in 1.0 ml of distilled water, and the solution was transferred to a scintillation vial containing 10.0 ml of acquasol.
Cross-reactivity of various compounds with pyridostigmine antibody was determined in the RIA. […] Each compound was tested for cross-reactivity with the antibody. The maximum concentration of each compound tested was 500 ng.

[3] = cited from earlier work
[4] = Pyridostigmine in various rat organs after intramuscular dose, by RIA; assay type: in vivo; details: 1.0 mg/kg i.m.
Procedure: (§1) To further validate the RIA and the antibody specificity of the present invention, additional rat studies were conducted. Male rats were housed two per cage at 23° C. with a twelve hour on-off light cycle. The animals were given food and water ad libitum. After sixty days, food was withheld for twelve hours. Then pyridostigmine was administered (1.0 mg. of pyridostigmine bromide in physiologic saline/Kg) intramuscularly to the rats weighing between 450 and 550 grams.
(§2) Groups of three animals were sacrificed by using inhalation anesthetic, Fluothane (0.01% thymol, w/w; and 0.00025% ammonia, w/w) Ayerst Laboratories, New York, N.Y. at various times after dosing, namely at 0, 5, 10, 15, 30, 60 minutes and at 2, 3, 4 and 6 hours. Blood was collected via heart puncture, and serum was separated by centrifugation at 2000 xg for 20 minutes. Table 4 gives the pyridostigmine level in the plasma of three male rats for each time interval as determined by the RIA of the present invention.
The brain, fat, heart, muscle and spleen were also removed from the sacrificed rats. The organs from each time period were pooled and kept frozen at -85° C. until analyzed. In preparing tissue homogenates for analysis, tissue samples were first brought to room temperature. Next the tissue samples were washed with ice-cold saline, blotted dry, weighed and homogenized in an ice-cold solution ([…], 0.5%. Triton X, 150 mM sodium chloride, pH 7.4; 2:1, v/w) with a Biohomogenizer (from Biospect Products Inc., Bartlesville, OK), cooling the tubes with ice as needed. The suspension was centrifuged at 15,000 ×g for 30 minutes at […] The supernatant was collected, and the pellet was mixed once more (1:1, w/v) with the solution, and centrifuged as described earlier. The supernatants for like samples were combined. The RIA of the present invention was then followed to determine the amounts of pyridostigmine in the various rat organs. The results of the RIA are given in.

[5] = Pyridostigmine level in rat sera after intramuscular dose, by RIA; assay type: in vivo; details: for concentration at 5 min / concentration at 10 min / concentration at 0.25 h / concentration at 0.5 h / concentration at 1 h / concentration at 2 h / concentration at 3 h / concentration at 4 h: rat, serum, im
Procedure: as §1, §2

[6] = tested on: patients; details: cited from earlier work

## CN(C)C(=O)Oc1ccc[n+](C)c1 [Pyridostigmine]
[1]
  cholinesterase inhibition: reversible cholinesterase inhibitor
[2]
  IC 50 (50% inhibition of binding of 3H-pyridostigmine to the antibody): 4 ng
[3]; alkaline solutions
  stability: unstable in alkaline solutions
[3]; water and alcohol
  solubility: freely soluble in water and alcohol
[4]; Brain, 1 HR
  Pyridostigmine in rat organs: 5.06 ng/mg protein
[4]; Brain, 2 HR
  Pyridostigmine in rat organs: 4.63 ng/mg protein
[4]; Brain, 3 HR
  Pyridostigmine in rat organs: 3.92 ng/mg protein
[4]; Brain, 4 HR
  Pyridostigmine in rat organs: 3.55 ng/mg protein
[4]; Brain, 6 HR
  Pyridostigmine in rat organs: 2.62 ng/mg protein
[4]; Brain, 5 min
  Pyridostigmine in rat organs: 3.63 ng/mg protein
[4]; Brain, 10 min
  Pyridostigmine in rat organs: 7.65 ng/mg protein
[4]; Brain, 15 min
  Pyridostigmine in rat organs: 6.32 ng/mg protein
[4]; Brain, 30 min
  Pyridostigmine in rat organs: 6.11 ng/mg protein
[4]; Fat, 1 HR
  Pyridostigmine in rat organs: 8.69 ng/mg protein
[4]; Fat, 2 HR
  Pyridostigmine in rat organs: 6.46 ng/mg protein
[4]; Fat, 3 HR
  Pyridostigmine in rat organs: 5.73 ng/mg protein
[4]; Fat, 4 HR
  Pyridostigmine in rat organs: 3.26 ng/mg protein
[4]; Fat, 6 HR
  Pyridostigmine in rat organs: 2.91 ng/mg protein
[4]; Fat, 5 min
  Pyridostigmine in rat organs: 5.98 ng/mg protein
[4]; Fat, 10 min
  Pyridostigmine in rat organs: 8.11 ng/mg protein
[4]; Fat, 15 min
  Pyridostigmine in rat organs: 15.37 ng/mg protein
[4]; Fat, 30 min
  Pyridostigmine in rat organs: 9.05 ng/mg protein
[4]; Heart, 1 HR
  Pyridostigmine in rat organs: 78.29 ng/mg protein
[4]; Heart, 2 HR
  Pyridostigmine in rat organs: 52.4 ng/mg protein
[4]; Heart, 3 HR
  Pyridostigmine in rat organs: 48.57 ng/mg protein
[4]; Heart, 4 HR
  Pyridostigmine in rat organs: 23.11 ng/mg protein
[4]; Heart, 6 HR
  Pyridostigmine in rat organs: 8.52 ng/mg protein
[4]; Heart, 5 min
  Pyridostigmine in rat organs: 43.78 ng/mg protein
[4]; Heart, 10 min
  Pyridostigmine in rat organs: 57.5 ng/mg protein
[4]; Heart, 15 min
  Pyridostigmine in rat organs: 70.4 ng/mg protein
[4]; Heart, 30 min
  Pyridostigmine in rat organs: 75.96 ng/mg protein
[4]; Muscle, 1 HR
  Pyridostigmine in rat organs: 9.46 ng/mg protein
[4]; Muscle, 2 HR
  Pyridostigmine in rat organs: 4.99 ng/mg protein
[4]; Muscle, 3 HR
  Pyridostigmine in rat organs: 4.8 ng/mg protein
[4]; Muscle, 4 HR
  Pyridostigmine in rat organs: 3.94 ng/mg protein
[4]; Muscle, 6 HR
  Pyridostigmine in rat organs: 3.08 ng/mg protein
[4]; Muscle, 5 min
  Pyridostigmine in rat organs: 9.63 ng/mg protein
[4]; Muscle, 10 min
  Pyridostigmine in rat organs: 13.57 ng/mg protein
[4]; Muscle, 15 min
  Pyridostigmine in rat organs: 11.67 ng/mg protein
[4]; Muscle, 30 min
  Pyridostigmine in rat organs: 10.08 ng/mg protein
[4]; Spleen, 1 HR
  Pyridostigmine in rat organs: 2.48 ng/mg protein
[4]; Spleen, 2 HR
  Pyridostigmine in rat organs: 2.40 ng/mg protein
[4]; Spleen, 3 HR
  Pyridostigmine in rat organs: 2.03 ng/mg protein
[4]; Spleen, 4 HR
  Pyridostigmine in rat organs: 1.92 ng/mg protein
[4]; Spleen, 6 HR
  Pyridostigmine in rat organs: 1.86 ng/mg protein
[4]; Spleen, 5 min
  Pyridostigmine in rat organs: 10.35 ng/mg protein
[4]; Spleen, 10 min
  Pyridostigmine in rat organs: 6.26 ng/mg protein
[4]; Spleen, 15 min
  Pyridostigmine in rat organs: 6.15 ng/mg protein
[4]; Spleen, 30 min
  Pyridostigmine in rat organs: 4.44 ng/mg protein
[5]; 0 min, 1.0 mg/kg pyridostigmine bromide i.m., male rats
  Pyridostigmine in the Rat Sera, Mean ± S.D.: 0 ng/mL
[5]; 0 min, 1.0 mg/kg pyridostigmine bromide i.m., male rats #1, #2, #3 in order
  Pyridostigmine in the Rat Sera, individual animals: 0 ng/mL
[5]; 5 min, 1.0 mg/kg i.m., male rats #1, #2 in order, 1 mg/kg
  Pyridostigmine in the Rat Sera, individual animals: 550 ng/mL
[5]; 10 min, 1.0 mg/kg i.m., male rats #1, #2 in order, 1 mg/kg
  Pyridostigmine in the Rat Sera, individual animals: 470 ng/mL
[5]; 15 min, 1.0 mg/kg i.m., male rats #1, #2, #3 in order, 1 mg/kg
  Pyridostigmine in the Rat Sera, individual animals: 300 ng/mL
[5]; 30 min, 1.0 mg/kg i.m., male rats #1, #2, #3 in order, 1 mg/kg
  Pyridostigmine in the Rat Sera, individual animals: 220 ng/mL
[5]; 60 min, 1.0 mg/kg i.m., male rats #1, #2, #3 in order, 1 mg/kg
  Pyridostigmine in the Rat Sera, individual animals: 110 ng/mL
[5]; 2 hr, 1.0 mg/kg i.m., male rats #1, #2, #3 in order, 1 mg/kg, 120 min
  Pyridostigmine in the Rat Sera, individual animals: 25 ng/mL and 15 ng/mL
[5]; 3 hr, 1.0 mg/kg i.m., male rats #1, #2 in order, 1 mg/kg, 180 min
  Pyridostigmine in the Rat Sera, individual animals: 14 ng/mL
[5]; 4 hr, 1.0 mg/kg i.m., male rats #1, #2, #3 in order, 1 mg/kg, 240 min
  Pyridostigmine in the Rat Sera, individual animals: 5 ng/mL and 6.5 ng/mL
[5]; 1 mg/kg, 5 min, 1.0 mg/kg i.m., male rats #1, #2 in order, read-out: Pyridostigmine in the Rat Sera, individual animals
  concentration at 5 min: 600 ng/mL
[5]; 1 mg/kg, 5 min, 1.0 mg/kg i.m., male rats, read-out: Pyridostigmine in the Rat Sera, Mean ± S.D.
  concentration at 5 min: 575 ± 35.4 ng/mL
[5]; 1 mg/kg, 10 min, 1.0 mg/kg i.m., male rats #1, #2 in order, read-out: Pyridostigmine in the Rat Sera, individual animals
  concentration at 10 min: 450 ng/mL
[5]; 1 mg/kg, 10 min, 1.0 mg/kg i.m., male rats, read-out: Pyridostigmine in the Rat Sera, Mean ± S.D.
  concentration at 10 min: 460 ± 14.1 ng/mL
[5]; 1 mg/kg, 15 min, 1.0 mg/kg i.m., male rats #1, #2, #3 in order, read-out: Pyridostigmine in the Rat Sera, individual animals
  concentration at 0.25 h: 400 ng/mL
[5]; 1 mg/kg, 15 min, 1.0 mg/kg i.m., male rats, read-out: Pyridostigmine in the Rat Sera, Mean ± S.D.
  concentration at 0.25 h: 387 ± 80.8 ng/mL
[5]; 1 mg/kg, 30 min, 1.0 mg/kg i.m., male rats #1, #2, #3 in order, read-out: Pyridostigmine in the Rat Sera, individual animals
  concentration at 0.5 h: 250 ng/mL
[5]; 1 mg/kg, 30 min, 1.0 mg/kg i.m., male rats, read-out: Pyridostigmine in the Rat Sera, Mean ± S.D.
  concentration at 0.5 h: 290 ± 96.4 ng/mL
[5]; 1 mg/kg, 60 min, 1.0 mg/kg i.m., male rats #1, #2, #3 in order, read-out: Pyridostigmine in the Rat Sera, individual animals
  concentration at 1 h: 140 ng/mL
[5]; 1 mg/kg, 60 min, 1.0 mg/kg i.m., male rats, read-out: Pyridostigmine in the Rat Sera, Mean ± S.D.
  concentration at 1 h: 130 ± 17.3 ng/mL
[5]; 1 mg/kg, 2 hr, 1.0 mg/kg i.m., male rats #1, #2, #3 in order, read-out: Pyridostigmine in the Rat Sera, individual animals
  concentration at 2 h: 24 ng/mL
[5]; 1 mg/kg, 2 hr, 1.0 mg/kg i.m., male rats, read-out: Pyridostigmine in the Rat Sera, Mean ± S.D.
  concentration at 2 h: 21 ± 5.51 ng/mL
[5]; 1 mg/kg, 3 hr, 1.0 mg/kg i.m., male rats #1, #2 in order, read-out: Pyridostigmine in the Rat Sera, individual animals
  concentration at 3 h: 12 ng/mL
[5]; 1 mg/kg, 3 hr, 1.0 mg/kg i.m., male rats, read-out: Pyridostigmine in the Rat Sera, Mean ± S.D.
  concentration at 3 h: 13 ± 1.41 ng/mL
[5]; 1 mg/kg, 4 hr, 1.0 mg/kg i.m., male rats #1, #2, #3 in order, read-out: Pyridostigmine in the Rat Sera, individual animals
  concentration at 4 h: 7.5 ng/mL
[5]; 1 mg/kg, 4 hr, 1.0 mg/kg i.m., male rats, read-out: Pyridostigmine in the Rat Sera, Mean ± S.D.
  concentration at 4 h: 6 ± 1.26 ng/mL
[6]; administered intraveneously
  side effect on intravenous administration: thrombophlebitis
[6]; certain patients
  adverse muscarinic effects: nausea, vomitin , diarrhea, miosis, excessive salivation and sweating, abdomimal cramps, bradycardia, bronchial secretion and bronchospasm
[6]; clinical use
  toxicity relative to therapeutic levels: toxic at levels very close to those which produce therapeutic results
[6]; human, in vivo
  other side effects: generalized weakness, muscle cramps, fasciculation, hypotension
[6]; overdose
  effect of substantial over administration: cholinergic crisis leading to death
